Columns and labels:
Type in all cases: functional
Mus musculus [1] = assay: Ex vivo inhibition of CE6 in C57BL/6 mouse liver at 1 mg/kg, ip after 1 hr relative to vehicle-treated control; settings: C57BL/6, Liver, route intraperitoneal
Mus musculus [2] = assay: Ex vivo inhibition of CE6 in C57BL/6 mouse kidney at 1 mg/kg, ip after 1 hr relative to vehicle-treated control; settings: C57BL/6, Kidney, route intraperitoneal
Mus musculus [3] = assay: Ex vivo inhibition of EST31 in C57BL/6 mouse liver at 1 mg/kg, ip after 1 hr relative to vehicle-treated control; settings: C57BL/6, Liver, route intraperitoneal
Mus musculus [4] = assay: Ex vivo inhibition of EST31 in C57BL/6 mouse kidney at 1 mg/kg, ip after 1 hr relative to vehicle-treated control; settings: C57BL/6, Kidney, route intraperitoneal

Measured: inhibition in vivo at 1 mg/kg

C#CCCCCCCCCCNC(=O)Oc1cccc(-c2cccc(C(N)=O)c2)c1
< 20%: all assays above

Reference: ChEMBL document CHEMBL3098115, “Drug discovery considerations in the development of covalent inhibitors” (2014)
